Reference: the supplement of paper PMC10307832

Tests used:
Assay in all cases: relative viability (nuclei count vs DMSO), 5 days (fraction); higher = more cells survive
[1] = compound: CC1=CC(=NN1)NC2=CC(=NC(=N2)/C=C/C3=CC=CC=C3)N4CCN(CC4)C + COc1cc2c(Oc3ccc(NC(=O)C4(C(=O)Nc5ccc(F)cc5)CC4)cc3F)ccnc2cc1OCCCN1CCOCC1 [Foretinib] (partner 0.25 µM)
Outline: (§1)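 Lung cancer cell lines were seeded in 1536-well plates and dosed by pin tool the next day, with either a single drug or a fixed anchor-drug dose combined with five library-drug doses (not always all listed) spaced in √10 steps. Five days later, one step fixed the cells and stained their nuclei (final 0.05% Triton X-100, 1% formaldehyde, 1 ug/ml Hoechst), and nuclei were counted on 4× images. Relative viability is the nuclei count in treated wells divided by the count in vehicle wells, and each value is the median of duplicate plates.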

[2] = compound: CC1=CC(=NN1)NC2=CC(=NC(=N2)/C=C/C3=CC=CC=C3)N4CCN(CC4)C + NC(=O)Nc1cc(-c2cccc(F)c2)sc1C(=O)N[C@H]1CCCNC1 [AZD7762] (partner 0.2 µM)
Outline: as §1

[3] = compound: COC1=CC(c2cc3ccccc3[nH]2)=N/C1=C\c1[nH]c(C)cc1C [Obatoclax] + COc1cccc2cc(-c3nc([C@H]4CC[C@H](C(=O)O)CC4)n4ncnc(N)c34)[nH]c12 [OSI-027] (partner 0.5 µM)
Outline: as §1

[4] = compound: COC1=CC(c2cc3ccccc3[nH]2)=N/C1=C\c1[nH]c(C)cc1C [Obatoclax] + C[C@@H](Oc1cc(-c2cnn(C3CCNCC3)c2)cnc1N)c1c(Cl)ccc(F)c1Cl [Crizotinib] (partner 1 µM)
Outline: as §1

| Cell Line | relative viability ([1]; first compound 0.08 µM) | relative viability ([1]; first compound 0.253 µM) | relative viability ([1]; first compound 0.8 µM) | relative viability ([1]; first compound 2.53 µM) | relative viability ([1]; first compound 8 µM) | relative viability ([2]; first compound 0.08 µM) | relative viability ([2]; first compound 0.253 µM) | relative viability ([2]; first compound 0.8 µM) | relative viability ([2]; first compound 2.53 µM) | relative viability ([2]; first compound 8 µM) | relative viability ([3]; first compound 0.01 µM) | relative viability ([3]; first compound 0.03162 µM) | relative viability ([3]; first compound 0.1 µM) | relative viability ([3]; first compound 0.3162 µM) | relative viability ([3]; first compound 1 µM) | relative viability ([4]; first compound 0.01 µM) | relative viability ([4]; first compound 0.03162 µM) | relative viability ([4]; first compound 0.1 µM) | relative viability ([4]; first compound 0.3162 µM) | relative viability ([4]; first compound 1 µM) |
| --- | --- | --- | --- | --- | --- | --- | --- | --- | --- | --- | --- | --- | --- | --- | --- | --- | --- | --- | --- | --- |
| HCC-366 | 0.942 | 1.04 | 0.472 | 0.0589 | 0.0265 | 0.247 | 0.302 | 0.245 | 0.0242 | 0.0179 | 0.961 | 0.847 | 0.827 | 0.821 | 0.208 | 0.63 | 0.554 | 0.468 | 0.533 | 0.354 |
| HCC-827 | 1.08 | 1.02 | 0.993 | 0.581 | 0.239 | 0.188 | 0.199 | 0.217 | 0.197 | 0.0973 | 0.846 | 0.733 | 0.806 | 0.675 | 0.778 | 0.86 | 0.847 | 0.957 | 0.876 | 0.772 |
| HOP-62 | 1.14 | 1.13 | 1.04 | 0.739 | 0.195 | 0.673 | 0.615 | 0.778 | 0.385 | 0.159 | 0.858 | 0.848 | 0.754 | 0.819 | 0.583 | 0.837 | 0.911 | 0.998 | 0.796 | 1 |
| LC-2-ad | 0.875 | 0.942 | 0.753 | 0.413 | 0.204 | 0.778 | 0.928 | 0.676 | 0.16 | 0.12 | 0.838 | 0.838 | 0.529 | 0.724 | 0.655 | 0.424 | 0.455 |  | 0.412 | 0.425 |
| LCLC-97TM1 | 0.911 | 0.954 | 0.961 | 0.296 | 0.132 | 0.177 | 0.251 | 0.236 | 0.139 | 0.0567 | 0.606 | 0.553 | 0.693 | 0.347 | 0.52 | 0.452 | 0.27 | 0.339 | 0.329 | 0.358 |
| LCLC-103H | 0.76 | 0.93 | 0.639 | 0.305 | 0.154 | 0.746 | 0.807 | 0.775 | 0.723 | 0.576 | 0.462 | 0.462 | 0.404 | 0.457 | 0.541 | 0.944 | 1.03 | 1.02 | 1.03 | 1.03 |
| LK-2 | 1.35 | 1.02 | 1 | 0.382 | 0.153 | 0.245 | 0.364 | 0.323 | 0.0834 | 0.0556 | 0.261 | 0.214 | 0.225 | 0.256 | 0.192 | 0.243 | 0.179 | 0.236 | 0.231 | 0.257 |
| LOU-NH91 | 0.94 | 0.976 | 0.912 | 0.848 | 0.507 | 0.782 | 0.834 | 0.733 | 0.518 | 0.336 | 0.727 | 0.719 | 0.566 | 0.714 | 0.683 | 0.768 | 0.628 | 0.703 | 0.874 | 0.759 |
